Measured values published in patent US20220079993A1, “NON-NATURALLY OCCURRING THERMOGENIC ADIPOCYTES, METHODS OF MAKING, AND METHODS OF USE THEREOF” (University of Georgia Research Foundation, Inc., priority 2019, published 2022).
Like-named read-outs stand apart in the source and are kept apart here.

Assays:
beige adipocytes = assay: Lipolysis validation assays of primary hits at three concentrations; type: cell-based, human; details: Homo sapiens, Adipocyte, 24 h; for activity at 2.2 µM: Conc. 2.2 µM; for activity at 6.7 µM: Conc. 6.7 µM; for activity at 20 µM: Conc. 20 µM; for activity at 2200 µM: Conc. 2.2 mM
Procedure: ADSCs were seeded at 5000 cell/cm^2 in 12-well plates, grown for 5 days and then induced to differentiate into GC for 20 days. Prior to the assay, cells were washed in DPBS twice and then incubated with DMEM with 2% fatty-acid free BSA (Santa Crus, sc-500949) and Triascin C (5 μM). Cells were treated with forskolin (20 μM) for indicated time periods and supernatant samples were collected. Lipolysis assay was performed with free glycerol reagent (Sigma, F6428-40ML), according to manufacturer instructions.
Lipolysis assays were performed after 24 hours of drug treatment by measuring free glycerol released in the 384-well format, using the procedure described above. Absorbance for each compound was normalized to untreated control samples for each plate and calculated as a percent of the control. Cut-offs for “activating” and “inhibiting” compounds were set at 2-fold. Validation assays were performed for select compounds at a range of concentration doses.
Next, lipolysis assays were performed for all 111 compounds identified in the primary screen at three different concentrations, of which twenty-four were selected for further analysis based on their newness and/or reproducibility.

GC = assay: Seahorse Mito Stress Test; type: cell-based, human; details: forskolin 20 μM for 24 hours
Procedure: FIG. 5A is a line graph showing the oxygen consumption rate from a Seahorse Mito Stress Test assay of GC compared to white adipocytes (WA). Cells were stimulated with forskolin (FSK, 20 uM) for 24 hours prior to treatment, and oligomycin (3 μM), FCCP (3 μM), and antimycin a/rotenone (5 μM) were added at indicated time points. n=9, where n is the number of independent replicates for each cell type/condition. Assay was normalized to total protein content. FIG. 5B is a line graph showing extracellular acidification rate from the assay in FIG. 5A. FIGS. 5C-5E are bar graphs showing basal respiration rate (5C) from the assay maximal respiration (5D) and proton leak (5E) calculated from assay performed in FIG. 5A. FIG. 5F is a bar graph showing the results of a lipolysis assay of ADSCs or GC (BA), treated with forskolin for indicated time period. FIG. 5G is a bar graph showing quantification of thermogenic dye assay of GC with or without forskolin treatment. […]
To perform the assay, ADSCs were plated on XFe24 plates (Agilent) at 5000 cell/cm^2 and grown to confluency. […] Following the assay, cells were lysed using RIPA buffer and protein concentration was determined by Bradford assay. Data was normalized by protein concentration and analyzed in Wave software (Agilent).

## C=C[C@@]1(C)CC(=O)[C@]2(O)[C@@]3(C)[C@@H](O)CCC(C)(C)[C@@H]3[C@H](O)[C@H](OC(C)=O)[C@@]2(C)O1 [Forskolin]
Beige adipocytes; read-out: % of Control (2)
  activity at 2.2 µM: 394%
  activity at 6.7 µM: 362%
  activity at 20 µM: 330%
Beige adipocytes; read-out: % of Control (4)
  activity at 2.2 µM: 247%
  activity at 6.7 µM: 242%
  activity at 20 µM: 267%
Beige adipocytes; read-out: % of Control (1)
  activity at 6.7 µM: 311%
  activity at 20 µM: 417%
  activity at 2200 µM: 417%
Beige adipocytes; read-out: % of Control (3)
  activity at 6.7 µM: 241%
  activity at 20 µM: 253%
  activity at 2200 µM: 252%
GC
  Elevation of uncoupled respiration (proton leak) relative to basal conditions: 64.7%
